Source: PubChem BioAssay AID1208 (EPA DSSTox, 2008)
Activity calls are given as the source filed them.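 Rule for the calls: active = at least one rat sex group has a carcinogenic potency value and tumor site recorded; inconclusive = only rat studies were judged inadequate by the national testing program; inactive = no potency or tumor site, with negative rat experiments.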 *1 amine or outer side, *2 acyl side, *3 side chain or, on linkers, in order; H or OH if unused. Where a SMILES comes first, the peptide text is derived from it. Bridges are numbered along the chain shown (N, C = ends). Roman numbers before positions name the chains, in order. [ ]: non-standard residue; d: D form. Actinocin(1to9) = Cc1c2oc3c(C)ccc(C(=O)[*:2])c3nc-2c(C(=O)[*:1])c(N)c1=O; d(aIle) = CC[C@H](C)[C@@H](N)C(=O)O; NMeV = CN[C@H](C(=O)O)C(C)C; Sar = CNCC(=O)O

Tested on: rat chronic carcinogenicity bioassay, TD50
Assay: DSSTox (CPDBAS) Carcinogenic Potency Database Summary Rat Bioassay Results
Details: for outcome: TD50_Rat_Note: no positive results; for Potency: stronger effect = lower value
Procedure, shortened: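 Chronic long-term rat cancer bioassays from literature and NCI/NTP, taking the most positive result per sex. TD50 in mmol converted to a 1–100 Activity Score from log10(1/TD50). Mixtures lacking TD50 scored 50.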

[1] = TargetSites_Rat_Female: no positive results

`O=C(NCC1CCCCN1)c1cc(OCC(F)(F)F)ccc1OCC(F)(F)F` (centres undefined) was tested, and the outcome [1] was “inactive; no positive results”.

In the case of `ClC1=C(Cl)[C@]2(Cl)[C@@H]3[C@H]4C=CC(C4)[C@@H]3C1(Cl)C2(Cl)Cl`, the outcome [1] is reported as “inactive; no positive results”.

For `CN(CCO)N=O`, the Potency was 1.29 mg/kg/day.

`c1ccc2c(c1)cc1ccc3cccc4ccc2c1c34` showed a Potency (TargetSites_Rat_BothSexes: stomach) of 0.956 mg/kg/day.

With `Nc1c(Cl)cc(Cl)cc1Cl` the outcome was “inactive; no positive results”.

`COP(=S)(OC)Oc1ccc(SC)c(C)c1` was tested, and the outcome [1] was “inactive; no positive results”.

For `C[C@]12CC[C@H]3C(=CCc4cc(OS(=O)(=O)O)ccc43)[C@@H]1CCC2=O`, the outcome [1] was “inactive; no positive results”.

With `CCN(C=O)CC` the outcome was “inactive; no positive results”.

In the case of `CCCCC1(COC(=O)CCC(=O)O)C(=O)N(c2ccccc2)N(c2ccccc2)C1=O`, the outcome [1] is reported as “inactive; no positive results”.

With `O=[N+]([O-])c1ccc(-c2cscn2)o1` the Potency (TargetSites_Rat_Female: mammary gland, stomach) was 7.68 mg/kg/day.

`O=[N+]([O-])c1ccc2c3c(cccc13)CC2` showed a Potency (TD50_Rat_Note: TD50 is harmonic mean of more than one positive test, TargetSites_Rat_Female: clitoral gland, ear Zymbals gland, lung, mammary gland) of 8.67 mg/kg/day.

For `CN1C(C(=O)Nc2ccccn2)=C(O)c2ccccc2S1(=O)=O`, the outcome was “inactive; no positive results”.

For `O=NN(CC(=O)O)CC(=O)O`, the outcome [1] was “inactive; no positive results”.

Work on `O=S(=O)(O)O` yielded a Potency (TD50_Rat_Note: TD50 is harmonic mean of more than one positive test, TargetSites_Rat_Female: lung) of 40.8 mg/kg/day.

With `O=NN1CCCN(N=O)CC1` the Potency (TD50_Rat_Note: TD50 is harmonic mean of more than one positive test, TargetSites_Rat_Female: esophagus, liver, nasal cavity, oral cavity) was 0.0615 mg/kg/day.

In the case of `O=C([O-])c1cc(N=Nc2ccc(-c3ccc(N=Nc4c(O)ccc(N=Nc5cc(S(=O)(=O)[O-])ccc5[O-])c4[O-])cc3)cc2)ccc1O.[Cu+2].[Na+].[Na+]`, the Potency (TargetSites_Rat_Female: liver) is reported as 2.07 mg/kg/day.

Work on `CN(CCCC(=O)O)N=O` yielded a Potency of 0.982 mg/kg/day.

Work on `O=NN1CCNCC1` yielded a Potency (TD50_Rat_Note: TD50 is harmonic mean of more than one positive test, no positive results are statistically significant, TargetSites_Rat_Female: all tumor bearing animals) of 8.78 mg/kg/day.

`NC(Cc1c[nH]c2ccccc12)C(=O)O` (centres undefined) was tested, and the outcome was “inactive; no positive results”.

Work on `Nc1ccccc1N` yielded a Potency of 248 mg/kg/day.

`O=C(O)O` was tested, and the Potency (TD50_Rat_Note: TD50 is harmonic mean of more than one positive test, TargetSites_Rat_Female: urinary bladder) was 13000 mg/kg/day and the outcome was “inactive; no positive results”.

`FC(F)(F)CCl` gave a Potency (TD50_Rat_Note: TD50 is harmonic mean of more than one positive test, TargetSites_Rat_Female: uterus) of 87.3 mg/kg/day.

With `CCCCCCCC(=O)OCC(COC(=O)CCCCCCC)OC(=O)CCCCCCC` the Potency was 5490 mg/kg/day.

Molecule `NC(=O)CCCCn1ccc(NC(N)=NCC(F)(F)F)n1` has a Potency (TD50_Rat_Note: TD50 is harmonic mean of more than one positive test, TargetSites_Rat_Female: stomach) of 1170 mg/kg/day.

Work on `Nc1ccc(O)c([N+](=O)[O-])c1` yielded a Potency [1] of 309 mg/kg/day.

With `O=C1OC(=O)c2ccccc21` the outcome [1] was “inactive; no positive results”.

Work on `CC1CN(N=O)CC(C)N1C(=O)c1ccccc1` (centres undefined) yielded a Potency (TargetSites_Rat_Female: stomach) of 9.66 mg/kg/day.

`CNC(=O)O/N=C/C(C)(C)SC` was tested, and the outcome [1] was “inactive; no positive results”.

In the case of `CC[C@H](C)[C@H]1NC(=O)[C@@H](NC(=O)c2c3nc4c(C(=O)N[C@@H]5C(=O)N[C@H](C(C)C)C(=O)N6CCC[C@H]6C(=O)N(C)CC(=O)N(C)[C@@H](C(C)C)C(=O)O[C@@H]5C)ccc(C)c4oc-3c(C)c(=O)c2N)[C@@H](C)OC(=O)[C@H](C(C)C)N(C)C(=O)CN(C)C(=O)[C@@H]2CCCN2C1=O` (I: T[d(aIle)]P[Sar][NMeV] / II: T[dV]P[Sar][NMeV]; ester I:1-I:C, II:1-II:C; linker I:N-II:N via Actinocin(1to9)), the outcome is reported as “inactive; no positive results”.

Molecule `CC1(C)O[C@@H]2C[C@H]3[C@@H]4CCC5=CC(=O)C=C[C@]5(C)[C@@]4(F)[C@@H](O)C[C@]3(C)[C@]2(C(=O)CO)O1` has a Potency of 0.053 mg/kg/day.

With `COCCl` the Potency was 5.5 mg/kg/day.

Work on `CC(C)(Oc1ccc(C2CC2(Cl)Cl)cc1)C(=O)O` (centres undefined) yielded a Potency (TD50_Rat_Note: TD50 is harmonic mean of more than one positive test, harmonic mean of TD50 includes a value for upper 99% confidence li, TargetSites_Rat_Female: stomach) of 1.97 mg/kg/day.

`NCC1(CC(=O)O)CCCCC1` showed a Potency [1] of 5850 mg/kg/day.

For `Oc1c(Cl)cc(Cl)c(Cl)c1Cc1c(O)c(Cl)cc(Cl)c1Cl`, the outcome [1] was “inactive; no positive results”.

Molecule `COc1ccc2c(c1)c(CC(=O)O)c(C)n2C(=O)c1ccc(Cl)cc1` has a Potency (TargetSites_Rat_Female: mammary gland) of 1.15 mg/kg/day.

`C=C(F)F` was tested, and the outcome [1] was “inactive; no positive results”.

Molecule `O=Cc1ccco1` has a Potency [1] of 683 mg/kg/day.

In the case of `Cc1c(-c2cnccn2)ssc1=S`, the outcome [1] is reported as “inactive; no positive results”.

`CC(CN1CC(=O)NC(=O)C1)N1CC(=O)NC(=O)C1` (centres undefined) was tested, and the Potency (TD50_Rat_Note: positive test results only by intraperitoneal or intravenous injection, TargetSites_Rat_Female: uterus) was 10.7 mg/kg/day.

For `Cc1cc(O)ccc1O`, the outcome was “inactive; no positive results”.

`N#[N+]c1cc(CCN)ccc1[O-]` gave a Potency of 37.6 mg/kg/day.

For `C1CCCNCCC1`, the outcome [1] was “inactive; no positive results”.

In the case of `C1CCNCC1`, the outcome [1] is reported as “inactive; no positive results”.

In the case of `[O]N=O`, the outcome is reported as “inactive; no positive results”.

`ClC1C(Cl)C(Cl)C(Cl)C(Cl)C1Cl` (centres undefined) was tested, and the outcome [1] was “inactive; no positive results” and the Potency was 11.2 mg/kg/day.

In the case of `NC(=S)NNC=O`, the outcome [1] is reported as “inactive”.

For `FC(F)(Cl)C(F)(Cl)Cl`, the outcome [1] was “inactive; no positive results”.

With `CC(=O)CN(CC(C)=O)N=O` the Potency (TD50_Rat_Note: TD50 is harmonic mean of more than one positive test, TargetSites_Rat_Female: liver, lung, vascular system) was 0.491 mg/kg/day.

Work on `CC(C)CCCCCCOC(=O)c1ccccc1C(=O)OCCCCCCC(C)C` yielded a Potency (TD50_Rat_Note: TD50 is harmonic mean of more than one positive test, TD50_Rat_mmol was not calculated for this mixture, but Activiity S, TargetSites_Rat_Female: hematopoietic system, liver) of 861 mg/kg/day.

With `CC(=O)Oc1ccccc1C(=O)O` the outcome (TargetSites_Rat_BothSexes: no positive results) was “inactive; no positive results”.

With `[Cl-].[Cl-].[Sn+2]` the outcome [1] was “inactive; no positive results”.

`O=Nc1ccc(Nc2ccccc2)cc1` was tested, and the Potency [1] was 201 mg/kg/day.

With `CCOc1ccc2c(c1)C(C)=CC(C)(C)N2` the outcome [1] was “inactive; no positive results”.

`CC=O` showed a Potency (TD50_Rat_Note: TD50 is harmonic mean of more than one positive test, TargetSites_Rat_Female: nasal cavity) of 153 mg/kg/day.

Work on `C/C=C(\C)C(=O)O[C@@H]1CCN2CC=C(COC(=O)C(O)(C(C)C)C(C)O)[C@H]12` (some centres undefined) yielded a Potency (TD50_Rat_Note: positive test results only by intraperitoneal or intravenous injection) of 1.91 mg/kg/day.

`CCN=[N+]([O-])CC` showed a Potency of 0.022 mg/kg/day.

With `CCOC(=O)[C@H](CCc1ccccc1)N[C@@H](C)C(=O)N1Cc2ccccc2C[C@H]1C(=O)O` the outcome [1] was “inactive; no positive results”.

For `C=CC(=C)Cl`, the Potency (TD50_Rat_Note: TD50 is harmonic mean of more than one positive test, TargetSites_Rat_Female: kidney, mammary gland, oral cavity, thyroid gland) was 12.5 mg/kg/day and the outcome [1] was “inactive; no positive results”.

`C=C(C)[C@H]1CC=C(C)CC1` gave a Potency [1] of 204 mg/kg/day.

For `CCCCC(C)(O)C/C=C/[C@H]1[C@H](O)CC(=O)[C@@H]1CCCCCCC(=O)OC` (some centres undefined), the outcome [1] was “inactive; no positive results”.

In the case of `O=C(O)C(Cl)(Cl)Cl`, the outcome is reported as “inactive; no positive results”.

`CC/C(=C(/CC)c1ccc(O)cc1)c1ccc(O)cc1` gave a Potency (TD50_Rat_Note: TD50 is harmonic mean of more than one positive test, greater than ten-fold variation among TD50 values for positive res, TargetSites_Rat_Female: liver, pituitary gland) of 0.223 mg/kg/day.

For `O=C1OC(C(O)CO)C(O)=C1O` (centres undefined), the outcome was “inactive; no positive results”.

For `CC(=O)CN(CC(O)CO)N=O` (centres undefined), the Potency (TargetSites_Rat_Female: esophagus, oral cavity, stomach) was 0.0352 mg/kg/day.

For `CC(C)NCC(O)COc1cccc2ccccc12` (centres undefined), the outcome [1] was “inactive; no positive results”.

In the case of `CC[C@H](C)C(=O)O[C@H]1C[C@@H](C)C=C2C=C[C@H](C)[C@H](CC[C@@H]3C[C@@H](O)CC(=O)O3)[C@H]21`, the outcome [1] is reported as “inactive; no positive results”.
